The values below come from ChEMBL document CHEMBL5726231, “Btk inhibitors” (2017).

For the assay, the target named is Tyrosine-protein kinase BTK (Homo sapiens, UniProt Q06187). In words: To each well of a black non-binding surface Corning 384-well microplate (Corning Catalog #3820), 5 nL of compound (2000 fold dilution in final assay volume of 10 μL) was dispensed, followed by the addition of 7.5 μL of 1× kinase buffer (50 mM Hepes 7.5, 10 mM MgCl2, 0.01% Brij-35, 1 mM EGTA, 0.05% BSA & 1 mM DTT) containing 5.09 pg/μL (66.67 pM) of BTK enzyme (recombinant protein from baculovirus-transfected Sf9 cells: full-length BTK, 6HIS-tag cleaved). Following a 60 minute compound & enzyme incubation, each reaction was initiated by the addition of 2.5 μL 1× kinase buffer containing 8 μM biotinylated A5 peptide (Biotin-EQEDEPEGDYFEWLE-NH2), and 100 μM ATP. The final reaction in each well of 10 μL consists of 50 pM hBTK, 2 μM biotin-A5-peptide, and 25 μM ATP. Phosphorylation reactions were allowed to proceed for 120 minutes. Reactions were immediately quenched by the addition of 20 uL of 1× quench buffer (15 mM EDTA, 25 mM Hepes 7.3, and 0.1% Triton X-100) containing detection reagents (0.626 nM of LANCE-Eu-W1024-anti-phosphoTyrosine antibody, PerkinElmer and 86.8 nM of Streptavidin-conjugated Dylight 650, Dyomics/ThermoFisher Scientific). After 60 minutes incubation with detection reagents, reaction plates were read on a PerkinElmer EnVision plate reader using standard TR-FRET protocol. Briefly, excitation of donor molecules (Eu-chelate:anti-phospho-antibody) with a laser light source at 337 nm produces energy that can be transferred to Dylight-650 acceptor molecules if this donor:acceptor pair is within close proximity. Fluorescence intensity at both 665 nm (acceptor) and 615 nm (donor) are measured and a TR-FRET ratio calculated for each well (acceptor intensity/donor intensity).
Tyrosine-protein kinase BTK, sequence (Q06187 whole entry): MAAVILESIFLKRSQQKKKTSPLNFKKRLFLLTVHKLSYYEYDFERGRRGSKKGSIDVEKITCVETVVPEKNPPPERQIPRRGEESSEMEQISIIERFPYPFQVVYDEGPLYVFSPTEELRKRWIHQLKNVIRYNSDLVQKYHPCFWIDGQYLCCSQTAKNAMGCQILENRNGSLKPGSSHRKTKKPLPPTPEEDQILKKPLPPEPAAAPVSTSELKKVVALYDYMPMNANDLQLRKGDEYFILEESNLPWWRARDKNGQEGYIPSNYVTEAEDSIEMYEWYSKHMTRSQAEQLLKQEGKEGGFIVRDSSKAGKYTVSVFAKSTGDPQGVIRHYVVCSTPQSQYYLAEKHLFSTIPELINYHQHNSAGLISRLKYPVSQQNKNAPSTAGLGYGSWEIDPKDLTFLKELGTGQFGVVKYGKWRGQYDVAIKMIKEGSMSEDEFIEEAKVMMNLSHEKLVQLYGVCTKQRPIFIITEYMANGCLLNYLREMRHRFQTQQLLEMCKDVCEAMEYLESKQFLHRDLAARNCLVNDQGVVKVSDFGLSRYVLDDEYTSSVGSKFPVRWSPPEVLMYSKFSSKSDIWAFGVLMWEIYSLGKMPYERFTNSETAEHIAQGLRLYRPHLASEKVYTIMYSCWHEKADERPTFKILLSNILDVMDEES

As a reminder, the IC50 is the concentration that inhibits the measured activity by half.

For `COCC(=O)N1CCC[C@@H](c2nn(-c3ccc(Oc4ccccc4)cc3)c3c(N)nccc23)C1`, the IC50 was 2.7 nM. Consider `C=CC(=O)N1CCC[C@@H](c2nn(-c3ccc(Oc4ccccc4)cc3)c3c(N)nccc23)C1`, for which the IC50 is 0.66 nM.

In the case of `COCCOCC(=O)N1CCC[C@@H](c2nn(-c3ccc(Oc4ccccc4)cc3)c3c(N)nccc23)C1`, the IC50 is 3.5 nM. Regarding `Cn1cncc1C(=O)N1CCC[C@@H](c2nn(-c3ccc(Oc4ccccc4)cc3)c3c(N)nccc23)C1`, the IC50 was 2.7 nM.

Consider `Nc1nccc2c([C@@H]3CCCN(C(=O)C4CCC4)C3)nn(-c3ccc(Oc4ccccc4)cc3)c12`, for which the IC50 was 3.5 nM. On to `Cc1noc(C)c1C(=O)N1CCC[C@@H](c2nn(-c3ccc(Oc4ccccc4)cc3)c3c(N)nccc23)C1`, for which the IC50 is 13.7 nM.

`CC(C)C(=O)N1CCC[C@@H](c2nn(-c3ccc(Oc4ccccc4)cc3)c3c(N)nccc23)C1`: the IC50 is 3.7 nM. `Cc1ncn(C)c1C(=O)N1CCC[C@@H](c2nn(-c3ccc(Oc4ccccc4)cc3)c3c(N)nccc23)C1`: the IC50 was 9.2 nM. For `Nc1nccc2c([C@@H]3CCCN(C(=O)C4CC4)C3)nn(-c3ccc(Oc4ccccc4)cc3)c12`, the IC50 is 3.3 nM. As for `N#CC1(C(=O)N2CCC[C@@H](c3nn(-c4ccc(Oc5ccccc5)cc4)c4c(N)nccc34)C2)CC1`, the IC50 was 11.8 nM. For the compound `CC1(C(=O)N2CCC[C@@H](c3nn(-c4ccc(Oc5ccccc5)cc4)c4c(N)nccc34)C2)CC1`, the IC50 was 3.3 nM.

Take `Nc1nccc2c([C@@H]3CCCNC3)nn(-c3ccc(Oc4ccccc4)cc3)c12`: the IC50 is 30.8 nM. For the compound `CC(=O)N1CCC[C@@H](c2nn(-c3ccc(Oc4ccccc4)cc3)c3c(N)nccc23)C1`, the IC50 is 2 nM. Regarding `CCC(=O)N1CCC[C@@H](c2nn(-c3ccc(Oc4ccccc4)cc3)c3c(N)nccc23)C1`, the IC50 is 2 nM. In the case of `CO[C@@H](C)C(=O)N1CCC[C@@H](c2nn(-c3ccc(Oc4ccccc4)cc3)c3c(N)nccc23)C1`, the IC50 is 3.9 nM. The figure for `Nc1nccc2c([C@@H]3CCCN(C(=O)C4CC(F)(F)C4)C3)nn(-c3ccc(Oc4ccccc4)cc3)c12` is 8.9 nM; for `COCCC(=O)N1CCC[C@@H](c2nn(-c3ccc(Oc4ccccc4)cc3)c3c(N)nccc23)C1` it is 1.8 nM.

For `CO[C@H](C)C(=O)N1CCC[C@@H](c2nn(-c3ccc(Oc4ccccc4)cc3)c3c(N)nccc23)C1`, the IC50 was 5.5 nM. Then `Nc1nccc2c([C@@H]3CCCN(C(=O)C4(O)CC4)C3)nn(-c3ccc(Oc4ccccc4)cc3)c12`, with 3 nM; and `C[C@H](O)C(=O)N1CCC[C@@H](c2nn(-c3ccc(Oc4ccccc4)cc3)c3c(N)nccc23)C1`, with 2.3 nM. As for `C[C@@H](O)C(=O)N1CCC[C@@H](c2nn(-c3ccc(Oc4ccccc4)cc3)c3c(N)nccc23)C1`, the IC50 was 1 nM. Regarding `CC#CC(=O)N1CCC[C@@H](c2nn(-c3ccc(Oc4ccccc4)cc3)c3c(N)nccc23)C1`, the IC50 was 1 nM.

For the compound `CCOCC(=O)N1CCC[C@@H](c2nn(-c3ccc(Oc4ccccc4)cc3)c3c(N)nccc23)C1`, the IC50 is 3.5 nM.
